{
  "source": "patent US6852689B2",
  "about": "“Methods for administration of antibiotics” (priority 1998, dated 2005)",
  "key": {"dogs [1]": {"test_system": "dogs", "assay": "Study A: skeletal muscle toxicity (serum CPK, microscopic myopathy) after repeated intravenous dosing", "conditions": "for Diaphragm myofiber degeneration, sites affected/sites examined / Heart myofiber degeneration, sites affected/sites examined / Skeletal muscle myofiber degeneration, sites affected/sites examined / Skeletal muscle myofiber regeneration, sites affected/sites examined: iv 20 days", "procedure": "(§1) Skeletal muscle toxicity was measured in dogs by increases in CPK levels to above the normal range and by microscopic changes in skeletal tissue.\nTreated animals were sacrificed at approximately one dosing interval after the last dose and muscle tissue was microscopically examined for indications of myopathy."}, "[2]": {"assay": "Study A: steady state plasma concentrations of daptomycin on day 18 by HPLC", "conditions": "dogs", "procedure": "as §1\nSteady state plasma concentrations of daptomycin on day 18 of dosing were determined by HPLC."}, "dogs [3]": {"test_system": "dogs", "assay": "Study B: skeletal muscle toxicity (serum CPK, microscopic myopathy) after repeated intravenous dosing", "type": "in vivo, dog", "procedure": "Serum CPK levels were determined as disclosed in Example 1. […] In contrast, CPK levels at 5 mg/kg q8h were elevated compared to 5 mg/kg q24h or saline controls."}, "[4]": {"assay": "Study B: steady state plasma concentrations of daptomycin on day 18 by HPLC", "procedure": "In order to study the effects of threshold plasma concentration on skeletal muscle toxicity, dogs (4 male dogs/group) were administered dose regimens of saline q8h, daptomycin 5 mg/kg q24h (approximate NOELq24h) and daptomycin 5 mg/kg q8h intravenously for 20 days.\nAs in Example 1, steady state plasma concentrations of daptomycin on day 18 of dosing were determined by HPLC."}, "human patients": {"test_system": "human patients", "assay": "Clinical study (Example 4): serum CPK and skeletal muscle effects in hospitalized adult subjects with gram-positive infections", "type": "in vivo", "procedure": "In order to study whether an increased dosing interval would prevent transient skeletal muscle toxicity in patients, daptomycin was administered intravenously to hospitalized adult subjects with serious gram-positive bacteremia or with a variety of infections due to gram-positive bacteria that was resistant to vancomycin or who were otherwise refractory to, or contraindicated for, currently available therapy. The subjects were treated for a period of 7-21 days. Serum CPK levels were determined prior to first antibiotic treatment and every other day for the first seven days of treatment, and daily thereafter."}, "[5]": {"conditions": "human, in vivo"}, "gram-positive bacteria": {"test_system": "gram-positive bacteria", "conditions": "cited from earlier work"}, "[6]": {"test_system": "human volunteers and patients", "conditions": "in vivo, cited from earlier work"}, "rats": {"test_system": "rats", "conditions": "rat, in vivo, iv, 75 mg/kg/day; cited from earlier work"}, "dogs [7]": {"test_system": "dogs", "conditions": "dog, in vivo, iv, 40 mg/kg/day; cited from earlier work"}, "[8]": {"conditions": "cited from earlier work"}},
  "note": "Values joined by “and” are separate entries in the source; they are usually repeats but may differ in a detail not shown here. Identical values can stand only once. Like-named read-outs stand apart in the source and are kept apart here.",
  "data": [
    {"smiles": "CCCCCCCCCC(=O)N[C@@H](Cc1c[nH]c2ccccc12)C(=O)N[C@H](CC(N)=O)C(=O)N[C@@H](CC(=O)O)C(=O)N[C@@H]1C(=O)NCC(=O)N[C@@H](CCCN)C(=O)N[C@@H](CC(=O)O)C(=O)N[C@H](C)C(=O)N[C@@H](CC(=O)O)C(=O)NCC(=O)N[C@H](CO)C(=O)N[C@@H]([C@H](C)CC(=O)O)C(=O)N[C@@H](CC(=O)c2ccccc2N)C(=O)O[C@@H]1C", "note": "[daptomycin]", "values": [
      {"measurement": "Increases in serum CPK correlating with minimal skeletal myofiber degeneration", "setting": "dogs [1]; dog, in vivo", "result": "three- to 25"},
      {"measurement": "Microscopic effect on heart muscle", "setting": "dogs [1]; dog, in vivo", "result": "No microscopic degenerative effect"},
      {"measurement": "Time of CPK peak during treatment", "setting": "dogs [1]; dog, in vivo", "result": "approximately 1 week"},
      {"measurement": "Increase in CPK levels", "setting": "dogs [1]; dog, in vivo, 25 mg/kg", "result": "greater than 10 fold"},
      {"measurement": "Incidence of Microscopic Myopathy (sites with minimal degenerative changes/sites examined)", "setting": "dogs [1]; dog, in vivo, iv, 75 mg/kg", "result": "8/28"},
      {"measurement": "Peak CPK", "setting": "dogs [1]; dog, in vivo, iv, 75 mg/kg", "result": 990, "unit": "U/L"},
      {"measurement": "Increase in toxicity as measured by incidence of microscopic myopathy", "setting": "dogs [1]; dogs, 25 mg/kg three times a day compared to once daily", "result": 5, "unit": "fold"},
      {"measurement": "Diaphragm myofiber degeneration, sites affected/sites examined", "setting": "dogs [1]; dogs, 25 mg/kg q8h", "result": "1/4"},
      {"measurement": "Heart myofiber degeneration, sites affected/sites examined", "setting": "dogs [1]; dogs, 25 mg/kg q8h", "result": "0/4"},
      {"measurement": "Skeletal muscle myofiber degeneration, sites affected/sites examined", "setting": "dogs [1]; dogs, 25 mg/kg q8h", "result": "14/24"},
      {"measurement": "Skeletal muscle myofiber regeneration, sites affected/sites examined", "setting": "dogs [1]; dogs, 25 mg/kg q8h", "result": "9/24"},
      {"measurement": "Diaphragm myofiber degeneration, sites affected/sites examined", "setting": "dogs [1]; dogs, 25 mg/kg q24h", "result": "0/4"},
      {"measurement": "Heart myofiber degeneration, sites affected/sites examined", "setting": "dogs [1]; dogs, 25 mg/kg q24h", "result": "0/4"},
      {"measurement": "Skeletal muscle myofiber degeneration, sites affected/sites examined", "setting": "dogs [1]; dogs, 25 mg/kg q24h", "result": "3/24"},
      {"measurement": "Skeletal muscle myofiber regeneration, sites affected/sites examined", "setting": "dogs [1]; dogs, 25 mg/kg q24h", "result": "2/24"},
      {"measurement": "Diaphragm myofiber degeneration, sites affected/sites examined", "setting": "dogs [1]; dogs, 75 mg/kg q24h", "result": "0/4"},
      {"measurement": "Heart myofiber degeneration, sites affected/sites examined", "setting": "dogs [1]; dogs, 75 mg/kg q24h", "result": "0/4"},
      {"measurement": "Skeletal muscle myofiber degeneration, sites affected/sites examined", "setting": "dogs [1]; dogs, 75 mg/kg q24h", "result": "8/24"},
      {"measurement": "Skeletal muscle myofiber regeneration, sites affected/sites examined", "setting": "dogs [1]; dogs, 75 mg/kg q24h", "result": "1/24"},
      {"measurement": "Cmax ratio", "setting": "[2]; 25 mg/kg q8h compared to 25 mg/kg q24h", "result": 1.23, "unit": "fold higher"},
      {"measurement": "AUC ratio", "setting": "[2]; 25 mg/kg q8h compared to 75 mg/kg q24h", "result": 0.37, "unit": "fold higher"},
      {"measurement": "Time with plasma concentration below 27 μg/mL before next dose", "setting": "[2]; 75 mg/kg q24h", "result": "approximately 12 hours"},
      {"measurement": "Cmax ratio", "setting": "[2]; 75 mg/kg q24h compared to 25 mg/kg q8h", "result": "approximately 2.8 fold higher"},
      {"measurement": "Effect on heart muscle", "setting": "dogs [3]; dog, in vivo", "result": "No degenerative effect"},
      {"measurement": "Increases in CPK levels correlating with very minimal myofiber degeneration", "setting": "dogs [3]; dog, in vivo", "result": "zero- to four-fold"},
      {"measurement": "Heart myofiber degeneration, sites affected/sites examined", "setting": "dogs [3]; dog, in vivo, iv, 5 mg/kg", "result": "0/4"},
      {"measurement": "NOEL", "setting": "dogs [3]; dogs, q24h dosing interval", "result": "approximately 5 mg/kg"},
      {"measurement": "half-life", "setting": "[4]; dog, in vivo", "result": 2.5, "unit": "h"},
      {"measurement": "Time below 10 μg/mL plasma concentration", "setting": "[4]; dogs, 5 mg/kg q8h", "result": 6, "unit": "h"},
      {"measurement": "AUC ratio", "setting": "[4]; dogs, 5 mg/kg q8h compared to 5 mg/kg q24h", "result": 2.6, "unit": "fold higher"},
      {"measurement": "Time below 10 μg/mL plasma concentration", "setting": "[4]; dogs, 5 mg/kg q24h", "result": 18, "unit": "h"},
      {"measurement": "Muscular pain or weakness", "setting": "human patients; human, in vivo", "result": "None of the patients experienced any muscular pain or weakness"},
      {"measurement": "Total Number of Patients with Presumed Drug-Related Adverse Skeletal Muscle Effects/Total Evaluated", "setting": "human patients; iv 7-21 days, 4 mg/kg q24h", "result": "0/8"},
      {"measurement": "Total Number of Patients with Presumed Drug-Related Adverse Skeletal Muscle Effects/Total Evaluated", "setting": "human patients; iv 7-21 days, 6 mg/kg q24h, 6 mg/kg", "result": "zero of nine and 0/9"},
      {"measurement": "Total Number of Patients with Presumed Drug-Related Adverse Skeletal Muscle Effects/Total Evaluated", "setting": "human patients; iv, 6 mg/kg followed by 3 mg/kg q12h", "result": "0/3"},
      {"measurement": "Predicted Cmax", "setting": "[5]; 4 mg/kg", "result": 69.2, "unit": "µg/mL"},
      {"measurement": "Predicted Cmax", "setting": "[5]; 6 mg/kg", "result": 86.8, "unit": "µg/mL"},
      {"measurement": "MIC of certain vancomycin-resistant strains relative to most vancomycin-susceptible strains", "setting": "gram-positive bacteria", "result": "two- to four-fold"},
      {"measurement": "MIC relative to that of vancomycin", "setting": "gram-positive bacteria; susceptible strains, typical", "result": 4, "unit": "fold lower"},
      {"measurement": "Adverse effects", "setting": "[6]; 3 mg/kg", "result": "occasional adverse effects"},
      {"measurement": "Patients with transient muscular weakness and pain", "setting": "[6]; 4 mg/kg", "result": "two of five"},
      {"measurement": "Skeletal muscle finding", "setting": "rats", "result": "mild myopathy"},
      {"measurement": "Skeletal muscle finding", "setting": "dogs [7]", "result": "mild myopathy"},
      {"measurement": "Plasma protein binding", "setting": "[8]", "result": "high"}
    ]}
  ]
}
